# Data from PubChem BioAssay AID2060623 (Molecular Pharmacology Branch, DTP, NCI, 2025).
# Test system: 227483-062-R1-J1-PDC complex spheroids with HUVEC/MSC, viability
# Experiment: Anticancer human tumor 227483-062-R1-J1-PDC patient-derived pancreatic carcinoma cell line growth inhibition [CLK]
# Conditions: for IC50: curve of first compound; for viability, T/C: stronger effect = lower value
# How it was run: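 Patient-derived tumor cells grown as complex spheroids with HUVEC endothelial cells and mesenchymal stem cells, treated with drug combinations. Concentrations descend in half-log steps from near clinical Cmax, or from 10 microM if Cmax unknown.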
# [1] = second compound 0.0316 µM, first compound 0.0316 µM
# [2] = second compound 0.0316 µM, first compound 0.1 µM
# [3] = second compound 0.0316 µM, first compound 0.316 µM
# [4] = second compound 0.0316 µM, first compound 1 µM
# [5] = second compound 0.0316 µM, first compound 3.16 µM
# [6] = second compound 0.0316 µM, first compound 10 µM
# [7] = second compound 0.1 µM, first compound 0.0316 µM
# [8] = second compound 0.1 µM, first compound 0.1 µM
# [9] = second compound 0.1 µM, first compound 0.316 µM
# [10] = second compound 0.1 µM, first compound 1 µM
# [11] = second compound 0.1 µM, first compound 3.16 µM
# [12] = second compound 0.1 µM, first compound 10 µM
# [13] = second compound 0.316 µM, first compound 0.0316 µM
# [14] = second compound 0.316 µM, first compound 0.1 µM
# [15] = second compound 0.316 µM, first compound 0.316 µM
# [16] = second compound 0.316 µM, first compound 1 µM
# [17] = second compound 0.316 µM, first compound 3.16 µM
# [18] = second compound 0.316 µM, first compound 10 µM
# [19] = second compound 1 µM, first compound 0.0316 µM
# [20] = second compound 1 µM, first compound 0.1 µM
# [21] = second compound 1 µM, first compound 0.316 µM
# [22] = second compound 1 µM, first compound 1 µM
# [23] = second compound 1 µM, first compound 3.16 µM
# [24] = second compound 1 µM, first compound 10 µM
# [25] = second compound 3.16 µM, first compound 0.0316 µM
# [26] = second compound 3.16 µM, first compound 0.1 µM
# [27] = second compound 3.16 µM, first compound 0.316 µM
# [28] = second compound 3.16 µM, first compound 1 µM
# [29] = second compound 3.16 µM, first compound 3.16 µM
# [30] = second compound 3.16 µM, first compound 10 µM
# [31] = second compound 10 µM, first compound 0.0316 µM
# [32] = second compound 10 µM, first compound 0.1 µM
# [33] = second compound 10 µM, first compound 0.316 µM
# [34] = second compound 10 µM, first compound 1 µM
# [35] = second compound 10 µM, first compound 3.16 µM
# [36] = second compound 10 µM, first compound 10 µM
# 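Further: spheroids exposed to compounds for seven days before readout.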
# 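Wherever viability, T/C is given: percent of DMSO vehicle control luminescence as 100% viability.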
structure (smiles),measurement,setting,value
CCCS(=O)(=O)Nc1ccc(F)c(C(=O)c2c[nH]c3ncc(-c4ccc(Cl)cc4)cc23)c1F + CN1CCN(c2cc(C(=O)Nc3cc4cc(-c5cnn(C)c5)ccc4cn3)ccn2)CC1,IC50,second compound 0.0316 µM,> 10000 nM
same,IC50,second compound 0.1 µM,5270 nM
same,IC50,second compound 0.316 µM,< 31.6 nM
same,IC50,second compound 1 µM,< 31.6 nM
same,IC50,second compound 3.16 µM,< 31.6 nM
same,IC50,second compound 10 µM,< 31.6 nM
same,"viability, T/C",[1],115%
same,"viability, T/C",[2],98%
same,"viability, T/C",[3],92.6%
same,"viability, T/C",[4],111%
same,"viability, T/C",[5],113%
same,"viability, T/C",[6],98.8%
same,"viability, T/C",[7],59.5%
same,"viability, T/C",[8],63.6%
same,"viability, T/C",[9],62.2%
same,"viability, T/C",[10],95.5%
same,"viability, T/C",[11],57.5%
same,"viability, T/C",[12],32.8%
same,"viability, T/C",[13],5.7%
same,"viability, T/C",[14],6.53%
same,"viability, T/C",[15],5.51%
same,"viability, T/C",[16],4.08%
same,"viability, T/C",[17],8.45%
same,"viability, T/C",[18],5.43%
same,"viability, T/C",[19],4.51%
same,"viability, T/C",[20],1.83%
same,"viability, T/C",[21],3.28%
same,"viability, T/C",[22],1.8%
same,"viability, T/C",[23],2.28%
same,"viability, T/C",[24],2.25%
same,"viability, T/C",[25],3.73%
same,"viability, T/C",[26],4.36%
same,"viability, T/C",[27],3.99%
same,"viability, T/C",[28],4.7%
same,"viability, T/C",[29],5.81%
same,"viability, T/C",[30],4.4%
same,"viability, T/C",[31],4.02%
same,"viability, T/C",[32],2.72%
same,"viability, T/C",[33],2.7%
same,"viability, T/C",[34],3.39%
same,"viability, T/C",[35],3.28%
same,"viability, T/C",[36],2.76%
Nc1ccn(C2OC(CO)C(O)C2(F)F)c(=O)n1 (centres undefined) + CNC(=O)c1ccc(Nc2nc(OC3CCCC3)c3c(-c4ccc5nc(C)oc5c4)c[nH]c3n2)c(OC)c1,IC50,second compound 0.0316 µM,67.5 nM
same,IC50,second compound 0.1 µM,78.5 nM
same,IC50,second compound 0.316 µM,52.4 nM
same,IC50,second compound 1 µM,< 31.6 nM
same,IC50,second compound 3.16 µM,< 31.6 nM
same,IC50,second compound 10 µM,< 31.6 nM
same,"viability, T/C",[1],77.5%
same,"viability, T/C",[2],34.3%
same,"viability, T/C",[3],34.2%
same,"viability, T/C",[4],34.4%
same,"viability, T/C",[5],28.2%
same,"viability, T/C",[6],20%
same,"viability, T/C",[7],93.3%
same,"viability, T/C",[8],36.2%
same,"viability, T/C",[9],35.6%
same,"viability, T/C",[10],34.2%
same,"viability, T/C",[11],26.8%
same,"viability, T/C",[12],19.3%
same,"viability, T/C",[13],62.2%
same,"viability, T/C",[14],32.6%
same,"viability, T/C",[15],27.1%
same,"viability, T/C",[16],28.9%
same,"viability, T/C",[17],21.8%
same,"viability, T/C",[18],15.8%
same,"viability, T/C",[19],49.2%
same,"viability, T/C",[20],28.6%
same,"viability, T/C",[21],20.2%
same,"viability, T/C",[22],21.1%
same,"viability, T/C",[23],15.5%
same,"viability, T/C",[24],12.6%
same,"viability, T/C",[25],29%
same,"viability, T/C",[26],20.8%
same,"viability, T/C",[27],19.6%
same,"viability, T/C",[28],15.9%
same,"viability, T/C",[29],13.3%
same,"viability, T/C",[30],11%
same,"viability, T/C",[31],23.6%
same,"viability, T/C",[32],22%
same,"viability, T/C",[33],16.7%
same,"viability, T/C",[34],15.2%
same,"viability, T/C",[35],13.6%
same,"viability, T/C",[36],9.42%
